Measured values as given in patent US9464064B2, “HCV helicase inhibitors and methods of use thereof” (University of Kansas, priority 2011, dated 2016).

Target: T1, HCV NS3 helicase NS3h_1b(con1) (Hepatitis C virus genotype 1b, UniProt Q9WMX2)
T1 construct: truncated C-terminally His-tagged NS3 proteins lacking the N-terminal protease, called NS3h; His-tag (C); made in house
Experiment: MBHA screen of NCI mechanistic set library at 20 μM (percent inhibition, compound interference)
Type: biochemical
Details: compounds at 20 μM; for Inh. (%) (Inhibition): calculated from Equation 1
Method: All molecular beacon-based helicase assays (MBHAs) were performed according to known methods (Belon & Frick (2008) supra; Belon & Frick (2009) supra). […] In each flat, black 384-well plate, 56 compounds were tested, in triplicate, along with three negative controls (DMSO only), three positive controls (500 nM dT20), and two wells with no enzyme. Fluorescence was read before ATP (F0) addition and 30 minutes after ATP was added to 1 mM (F30) using a Tecan Infinite M200 fluorescence microplate reader with excitation and emission wavelengths set to 643 and 670 nm, respectively. Percent inhibition was calculated with equation 1, and compound interference in the MBHA was calculated with equation 2.
In Equations 1 and 2, Fc0 is the fluorescence of the reactions containing the test compound before adding ATP, Fc30 is the fluorescence of the test compound reaction 30 minutes after adding ATP. F(−)0 is the average of three DMSO-only negative control reactions before adding ATP and F(−)30 is the average of three DMSO-only reactions 30 minutes after adding ATP.
To identify HCV helicase inhibitors, the MBHA was first used to screen the National Cancer Institute Developmental Therapeutics Program's mechanistic set library. In total, 827 compounds (at 20 μM) were screened using a MBHA with a DNA substrate (Table 1). Compounds were ranked by their ability to inhibit HCV helicase-catalyzed DNA unwinding as calculated from Equation 1.
Compound interference in the MBHA was evaluated by comparing the fluorescence of reactions containing each compound to the fluorescence of DMSO-only negative controls before ATP was added.

[1] = MBHA with DNA substrate, assay interference calculated with Equation 2
[2] = assay interference calculated with Equation 2 (fluorescence vs DMSO-only controls before ATP)

T1 sequence (Q9WMX2 1192-1657): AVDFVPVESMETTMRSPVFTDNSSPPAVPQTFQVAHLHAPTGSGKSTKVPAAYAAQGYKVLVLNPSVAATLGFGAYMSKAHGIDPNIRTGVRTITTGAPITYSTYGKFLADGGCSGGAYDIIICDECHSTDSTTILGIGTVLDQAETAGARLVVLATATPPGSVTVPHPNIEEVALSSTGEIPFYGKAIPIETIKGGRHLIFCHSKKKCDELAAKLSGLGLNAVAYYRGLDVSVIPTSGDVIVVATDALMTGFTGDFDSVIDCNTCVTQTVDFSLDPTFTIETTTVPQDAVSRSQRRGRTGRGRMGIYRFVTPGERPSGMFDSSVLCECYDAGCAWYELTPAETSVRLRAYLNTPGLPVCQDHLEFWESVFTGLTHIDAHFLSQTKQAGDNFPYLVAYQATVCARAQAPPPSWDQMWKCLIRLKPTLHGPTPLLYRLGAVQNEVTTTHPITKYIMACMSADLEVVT

| Compound | Int.* (Ratio) (Interference) [1] | Inh. (%) (Inhibition) (MBHA with DNA substrate) | Inh. (%) (Inhibition) (MBHA with a DNA substrate) | Int.* (Ratio) (Interference) [2] |
| --- | --- | --- | --- | --- |
| O=C1Nc2c(Cl)cc(Cl)cc2C1=O [Compound 26045] | 0.92 | −13.7 | – | – |
| OCC1OC(n2cnc3c(SCc4ccccc4)ncnc32)C(O)C1O (stereo not drawn) [Compound 26273] | – | – | −6.4 | 0.89 |
| Cc1c2ccc3ccccc3c2c[n+]2ccccc12.[Cl-] [Compound 28002] | 1.08 | 27.1 | – | – |
| Cl.Nc1nc(N)c2ncn(-c3ccccc3)c2n1 [Compound 29603] | – | – | −5.0 | 0.99 |
| O=C([O][Hg][CH2]C1COC([CH2][Hg][O]C(=O)c2ccccc2)CO1)c1ccccc1 (stereo not drawn) [Compound 30916] | 0.93 | 19.0 | – | – |
| Nc1ccc2nc3ccc(=O)cc-3n(-c3ccccc3)c2c1 [Compound 31702] | 0.92 | −9.7 | – | – |
| NC(=O)NO [Compound 32065] | 1.01 | 3.7 | – | – |
| CC[C@H]1CN2CCc3cc(OC)c(OC)cc3[C@@H]2C[C@@H]1C[C@H]1NCCc2cc(O)c(OC)cc21 [Compound 32944] | – | – | −28.9 | 1.02 |
| CC(/C=N/N=C(N)N)=N\N=C(N)N [Compound 32946] | 1.07 | −13.6 | – | – |
| COc1cc(/C=C/C(=O)CC(=O)/C=C/c2ccc(O)c(OC)c2)ccc1O [Compound 32982] | 0.90 | 15.0 | – | – |
| COc1c(O[C@@H]2O[C@H](CO)[C@@H](O)[C@H](O)[C@H]2O)cc2c(c1OC)-c1ccc(OC)c(=O)cc1[C@@H](NC(C)=O)CC2 [Compound 32992] | – | – | −28.7 | 1.04 |
| Oc1ccc(-c2nc3ccccc3s2)cc1 [Compound 33004] | 1.00 | −0.9 | – | – |
| CC(=O)Nc1ccc(-c2nc3ccccc3s2)cc1 [Compound 33006] | 0.89 | 15.9 | – | – |
| COc1cc2c(c(OC)c1OC)-c1ccc(OC)c(=O)cc1[C@@H](NC(=O)c1ccccc1)CC2 [Compound 33410] | – | – | −28.8 | 1.16 |
| CCN1C=C/C(=C\C=C\c2cc[n+](CC)c3ccccc23)c2ccccc21.[I-] [Compound 34391] | 0.24 | 100.6 | – | – |
| COc1c2c(c(OC)c3c1c(=O)c1ccccc1n3C)OCO2 [Compound 34757] | 0.98 | −7.4 | – | – |
| O=S(=O)(O)c1cc(N=Nc2cc(S(=O)(=O)O)c3ccccc3c2O)ccc1/C=C/c1ccc(N=Nc2cc(S(=O)(=O)O)c3ccccc3c2O)cc1S(=O)(=O)O.[Na+] [Compound 34931] | 0.90 | 89.2 | – | – |
| O=C(C[n+]1ccc2ccccc2c1)c1ccc2ccc3ccccc3c2c1 [Compound 35489] | 1.04 | 18.7 | – | – |
| Nc1nc(SCCc2ccccc2)c2[nH]cnc2n1 [Compound 35866] | 0.93 | 15.3 | – | – |
| O=S1(=O)CCN(c2ccccc2CC(c2c[nH]c3ccccc23)c2c[nH]c3ccccc23)CC1 [Compound 35949] | 1.25 | −8.9 | – | – |
| C=C1C(=O)OC2CC1C(OC(C)=O)C/C(C)=C/CC/C(C)=C\CCC2(C)O (stereo not drawn) [Compound 36437] | 0.99 | −17.3 | – | – |
| C[C@@H]1C[C@H]2OC(=O)[C@@]3(C)CCC[C@@](C)([C@@H]23)[C@@]1(O)CCc1ccoc1 [Compound 36693] | 0.76 | −8.8 | – | – |
| Nc1nc(SCc2ccccc2Cl)c2[nH]cnc2n1 [Compound 36826] | 0.98 | 3.4 | – | – |
| COc1nc(N)nc2nc[nH]c12 [Compound 37364] | 1.01 | 16.5 | – | – |

| Compound | Int.* (Ratio) (Interference) [1] | Inh. (%) (Inhibition) (MBHA with DNA substrate) | Inh. (%) (Inhibition) (MBHA with a DNA substrate) | Int.* (Ratio) (Interference) [2] |
| --- | --- | --- | --- | --- |
| Clc1ccc(C(c2ccccc2Cl)C(Cl)Cl)cc1 (stereo not drawn) [Compound 38721] | 0.93 | 0.3 | – | – |
| O=C1C(CN2CCCCC2)CCCC1CN1CCCCC1 (stereo not drawn) [Compound 39202] | 0.91 | 4.5 | – | – |
| Cc1nc(Cl)c(C)c(Cl)n1 [Compound 40212] | 0.95 | 1.1 | – | – |
| O=C1C(Cl)=C(N2CCN(C3=C(Cl)C(=O)c4ccccc4C3=O)CC2)C(=O)c2ccccc21 [Compound 40341] | – | – | −6.4 | 1.09 |
| Nc1nc(SCc2ccccc2Cl)c2ncn(C3OC(CO)C(O)C3O)c2n1 (stereo not drawn) [Compound 40666] | – | – | −2.9 | 1.09 |
| COc1ccc(/C=C/c2cc(O)cc(O[C@@H]3O[C@H](CO)[C@@H](O)[C@H](O)[C@H]3O)c2)cc1O [Compound 43321] | – | – | −28.3 | 1.07 |
| CCN(CC)c1ccc2cc3ccc(=[N+](CC)CC)cc-3oc2c1.[Cl-] [Compound 44690] | 0.66 | 61.5 | – | – |
| COC1=C(N)C(=O)c2nc(-c3nc(C(=O)O)c(C)c(-c4ccc(OC)c(OC)c4O)c3N)ccc2C1=O [Compound 45383] | – | – | −19.1 | 1.05 |
| CN(C)/N=N/c1nc[nH]c1C(N)=O [Compound 45388] | 0.95 | 17.5 | – | – |
| Oc1ccc2ccccc2c1N=Nc1cccc2ccccc12 [Compound 45575] | 0.97 | 18.4 | – | – |
| CN1CCN(CCCN2c3ccccc3Sc3ccc(C(F)(F)F)cc32)CC1 [Compound 46061] | 0.93 | 13.2 | – | – |
| CC(=O)O[C@]1(C(C)=O)CC[C@H]2[C@@H]3C[C@H](C)C4=CC(=O)C=C[C@]4(C)[C@@]3(F)[C@@H](O)C[C@@]21C [Compound 47438] | 1.18 | −12.2 | – | – |
| CC(C)(C)c1ccc(O)c(CN(Cc2cc(C(C)(C)C)ccc2O)C2CCCCC2)c1 [Compound 48151] | 0.98 | 2.1 | – | – |
| [Cl-].c1csc(C[N+]23CN4CN(CN(C4)C2)C3)c1 [Compound 49660] | 0.93 | 21.2 | – | – |
| CC[C@]1(O)C[C@@H]2CN(CCc3c([nH]c4ccccc34)[C@@](C(=O)OC)(c3cc4c(cc3OC)N(C)[C@H]3[C@@](O)(C(=O)OC)[C@H](OC(C)=O)[C@]5(CC)C=CCN6CC[C@]43[C@@H]65)C2)C1.O=S(=O)(O)O [Compound 49842] | – | – | 9.9 | 0.98 |
| [Cl][Cd][Cl] [Compound 51148] | 0.94 | 53.4 | – | – |
| CN(C)[C@@H]1C(=O)C(C(N)=O)=C(O)[C@@]2(O)C(=O)C3=C(O)c4c(O)cccc4C[C@H]3C[C@@H]12 [Compound 51812] | 0.99 | −8.1 | – | – |
| C[C@@H]1C[C@H]2CC[C@H](O2)[C@H](C)C(=O)O[C@@H](C)C[C@@H]2CC[C@@H](O2)[C@@H](C)C(=O)O[C@H](C)C[C@H]2CC[C@H](O2)[C@H](C)C(=O)O[C@@H](C)C[C@@H]2CC[C@@H](O2)[C@@H](C)C(=O)O1 [Compound 52141] | 0.83 | −11.6 | – | – |
| COc1ccc(-c2cc(=O)c3c(OC)c(OC)c(OC)cc3o2)cc1 [Compound 53908] | 0.82 | 26.0 | – | – |
| Nc1nc(-c2cccs2)cs1 [Compound 54297] | – | – | −4.0 | 0.96 |
| COc1ccc2oc(-c3ccncc3)cc(=O)c2c1 [Compound 54650] | 1.11 | 24.7 | – | – |
| O=C1/C(=C/c2cccs2)Oc2ccccc21 [Compound 56544] | 0.96 | 1.5 | – | – |
| COc1cccc(/C=N\NC(=O)C(C)SC(C)C(=O)N/N=C/c2cccc(OC)c2)c1 (stereo not drawn) [Compound 56737] | 1.12 | −7.2 | – | – |
| Cc1cc2c(C(C)C)c(O)c(O)c(C=O)c2c(O)c1-c1c(C)cc2c(C(C)C)c(O)c(O)c(C=O)c2c1O [Compound 56817] | 0.90 | −2.0 | – | – |
